Structures are written as SMILES. Read-outs that look alike come from different tables or passages of the source. Where only a bound is given, the exact number is not on record here.

The target in test [1] is T1, His-GST-TVMV-hRIPK1(1-324) (Homo sapiens, UniProt Q13546).
T1 construct: The coding region of human RIPK1(1-324) flanked by NdeI site at 5′ end; made in house; host or cells: Spodoptera frugiperda (Sf9) insect cells, baculovirus
T1 sequence (Q13546 1-324): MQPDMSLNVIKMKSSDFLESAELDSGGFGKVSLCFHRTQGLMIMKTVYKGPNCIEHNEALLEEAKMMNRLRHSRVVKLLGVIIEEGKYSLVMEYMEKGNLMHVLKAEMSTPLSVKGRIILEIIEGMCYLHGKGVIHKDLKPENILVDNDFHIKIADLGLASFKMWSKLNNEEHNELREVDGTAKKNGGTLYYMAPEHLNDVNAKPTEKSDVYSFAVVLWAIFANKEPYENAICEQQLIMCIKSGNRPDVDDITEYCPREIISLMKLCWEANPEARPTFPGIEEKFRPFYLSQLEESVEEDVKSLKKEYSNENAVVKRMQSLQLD
The test can be described thus: RIPK1 HTRF Binding Assay.

For test [2], the system named is MLKL phosphorylation in HT29-L23 human colorectal adenocarcinoma cells. The test can be described thus: MLKL Phosphorylation High-Content Assay. It is filed as cell-based. Particulars: Homo sapiens. The method, boiled down:
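IC50 and Ymax obtained by 4-parameter logistic fitting of MLKL phosphorylation, measured as mean circ-ring average intensity ratio from high-content images. Staining used an anti-phospho-S358 MLKL antibody overnight at 4° C., following six-hour cell incubation at 37° C.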

Where [3] appears, read: x marks IC50 class <20 nM, read-out: RIPK1 HTRF binding <20 nM.
The mark [4] stands for this setting: x marks IC50 class >200 nM, read-out: pMLKL cell activity >200 nM.
The mark [5] stands for this setting: x marks IC50 class 20-200 nM, read-out: pMLKL cell activity 20-200 nM.
[6] abbreviates: x marks IC50 class 20-200 nM, read-out: RIPK1 HTRF binding 20-200 nM.
Where [7] appears, read: x marks IC50 class <20 nM, read-out: pMLKL cell activity <20 nM.

Regarding `CC(CCNC(=O)c1cncc(-c2ccn3nc(N)nc3c2)c1)c1ccccc1` (stereo not shown) [Example 73, 5-{2-Amino-[1,2,4]triazolo[1,5-a]pyridin-7-yl}-N-(3-phenylbutyl)pyridine-3-carboxamide], the IC50 in test [1] (setting [3]) is less than 20 nM; in test [2] (setting [4]), more than 200 nM.

Consider `Cc1ncc(C(=O)NCc2ccccc2OCC2CCCC2)cc1-c1ccn2nc(N)nc2c1` [Example 263, 5-{2-amino-[1,2,4]triazolo[1,5-a]pyridin-7-yl}-N-{[2-(cyclopentylmethoxy)phenyl]methyl}-6-methylpyridine-3-carboxamide], for which the results for the IC50 in test [1] (setting [3]) and in test [2] (setting [5]) were less than 20 nM and 20 to 200 nM, respectively.

Regarding `COc1ncc(-c2ccn3nc(N)nc3c2)cc1C(=O)Nc1cnn(C(c2ccccc2)c2ccccc2)c1` [Example 107, 5-{2-amino-[1,2,4]triazolo[1,5-a]pyridin-7-yl}-N-[1-(diphenylmethyl)-1H-pyrazol-4-yl]-2-methoxypyridine-3-carboxamide], the IC50 was 20 to 200 nM in test [1] (setting [6]) and more than 200 nM in test [2] (setting [4]).

As to `Cc1ncc(-c2ccn3nc(N)nc3c2)cc1C(=O)NC(C)c1cc(OC(F)(F)F)ccc1F` (stereo not shown) [Example 255, 5-{2-amino-[1,2,4]triazolo[1,5-a]pyridin-7-yl}-N-{1-[2-fluoro-5-(trifluoromethoxy)phenyl]ethyl}-2-methylpyridine-3-carboxamide], the values for the IC50 in test [1] (setting [3]) and in test [2] (setting [5]) were less than 20 nM and 20 to 200 nM, respectively.

On to `CCc1ncc(-c2ccn3nc(N)nc3c2)cc1C(=O)NCc1ccccc1Sc1ccccc1CO` [Example 61, 5-{2-Amino-[1,2,4]triazolo[1,5-a]pyridin-7-yl}-2-ethyl-N-[(2-{[2-(hydroxymethyl)phenyl]sulfanyl}phenyl)methyl]pyridine-3-carboxamide], for which the IC50 in test [1] (setting [3]) and in test [2] (setting [7]) was less than 20 nM each time.

In the case of `CCOc1ncc(-c2ccn3nc(N)nc3c2)cc1C(=O)NCc1cc(F)ccc1OC1CCCC1` [Example 264, 5-{2-amino-[1,2,4]triazolo[1,5-a]pyridin-7-yl}-N-{[2-(cyclopentyloxy)-5-fluorophenyl]methyl}-2-ethoxypyridine-3-carboxamide], the IC50 in test [1] (setting [3]) and in test [2] (setting [7]) was less than 20 nM throughout.

Regarding `Cc1nc(C)c(-c2ccn3nc(N)nc3c2)cc1C(=O)NCc1cc(OC(F)(F)F)ccc1F` [Example 181, 5-{2-amino-[1,2,4]triazolo[1,5-a]pyridin-7-yl}-N-{[2-fluoro-5-(trifluoromethoxy)phenyl]methyl}-2,6-dimethylpyridine-3-carboxamide], the IC50 in test [1] (setting [3]) and in test [2] (setting [7]) was less than 20 nM each time.

Consider `CCOc1ncc(-c2ccn3nc(N)nc3c2)cc1C(=O)NCc1c(F)cc(F)cc1OCC1CCCC1` [Example 13, 5-{2-Amino-[1,2,4]triazolo[1,5-a]pyridin-7-yl}-N-{[2-(cyclopentylmethoxy)-4,6-difluorophenyl]methyl}-2-ethoxypyridine-3-carboxamide], for which the figures for the IC50 in test [1] (setting [6]) and in test [2] (setting [4]) were 20 to 200 nM and more than 200 nM, respectively.

Turning to `COc1ncc(-c2ccn3nc(N)nc3c2)cc1C(=O)NCc1cc(F)cc(F)c1OC1CCOC(C)C1` (stereo not shown) [Example 361, 5-(2-amino-[1,2,4]triazolo[1,5-a]pyridin-7-yl)-N-(3,5-difluoro-2-((2-methyltetrahydro-2H-pyran-4-yl)oxy)benzyl)-2-methoxynicotinamide], the IC50 in test [1] (setting [3]) was less than 20 nM; in test [2] (setting [5]), 20 to 200 nM.

For `COc1ncc(-c2ccn3nc(N)nc3c2)cc1C(=O)NC(C)c1cc(OC(F)(F)F)ccc1F` (single isomer, unassigned) [Example 89-1, 5-{2-amino-[1,2,4]triazolo[1,5-a]pyridin-7-yl}-N-{1-[2-fluoro-5-(trifluoromethoxy)phenyl]ethyl}-2-methoxypyridine-3-carboxamide], the IC50 in test [1] (setting [6]) and in test [2] (setting [5]) was 20 to 200 nM in each case.

As for `COc1cnc(-c2ccn3nc(N)nc3c2)cc1C(=O)NCc1cc(C(F)(F)F)ccc1F` [Example 391, 2-(2-amino-[1,2,4]triazolo[1,5-a]pyridin-7-yl)-N-(2-fluoro-5-(trifluoromethyl)benzyl)-5-methoxyisonicotinamide], the IC50 in test [1] (x marks IC50 class >200 nM, read-out: RIPK1 HTRF binding >200 nM) was more than 200 nM; in test [2] (setting [4]) it was more than 200 nM.

Consider `COc1ncc(-c2ccn3nc(N)nc3c2)cc1C(=O)NCc1ccccc1OC1CCOC1` (stereo not shown) [Example 140, 5-{2-amino-[1,2,4]triazolo[1,5-a]pyridin-7-yl}-2-methoxy-N-{[2-(oxolan-3-yloxy)phenyl]methyl}pyridine-3-carboxamide], for which the IC50 in test [1] (setting [3]) was less than 20 nM; in test [2] (setting [5]) it was 20 to 200 nM.

On to `COc1ncc(-c2ccn3nc(N)nc3c2)cc1C(=O)NCc1ccccc1CN1CCOCC1` [Example 105, 5-{2-amino-[1,2,4]triazolo[1,5-a]pyridin-7-yl}-2-methoxy-N-({2-[(morpholin-4-yl)methyl]phenyl}methyl)pyridine-3-carboxamide], for which the values for the IC50 in test [1] (setting [3]) and in test [2] (setting [4]) were less than 20 nM and more than 200 nM, respectively.

As to `Cc1ncc(-c2ccn3nc(N)nc3c2)cc1C(=O)NCc1ccc(F)cc1OCC1CC1` [Example 24, 5-{2-Amino-[1,2,4]triazolo[1,5-a]pyridin-7-yl}-N-{[2-(cyclopropylmethoxy)-4-fluorophenyl]methyl}-2-methylpyridine-3-carboxamide], the IC50 in test [1] (setting [6]) is 20 to 200 nM; in test [2] (setting [4]) it was more than 200 nM.

On to `CCOc1ncc(-c2ccn3nc(N)nc3c2)cc1C(=O)NCc1ccccc1S(=O)(=O)c1ccccc1CO` [Example 270, 5-{2-amino-[1,2,4]triazolo[1,5-a]pyridin-7-yl}-2-ethoxy-N-({2-[2-(hydroxymethyl)benzenesulfonyl]phenyl}methyl)pyridine-3-carboxamide], for which the IC50 is less than 20 nM in test [1] (setting [3]) and 20 to 200 nM in test [2] (setting [5]).

Regarding `Cc1ncc(-c2ccn3nc(N)nc3c2)cc1C(=O)NCc1cc(F)cc(F)c1OCC1CC1` [Example 235, 5-{2-amino-[1,2,4]triazolo[1,5-a]pyridin-7-yl}-N-{[2-(cyclopropylmethoxy)-3,5-difluorophenyl]methyl}-2-methylpyridine-3-carboxamide], the results for the IC50 in test [1] (setting [3]) and in test [2] (setting [5]) were less than 20 nM and 20 to 200 nM, respectively.

Regarding `Nc1nc2cc(-c3cnc(N)c(C(=O)NCc4c(F)cccc4OC4CCCC4)c3)ccn2n1` [Example 48, 2-Amino-5-{2-amino-[1,2,4]triazolo[1,5-a]pyridin-7-yl}-N-{[2-(cyclopentyloxy)-6-fluorophenyl]methyl}pyridine-3-carboxamide], the IC50 in test [1] (setting [3]) and in test [2] (setting [7]) was less than 20 nM each time.

In the case of `Cc1ncc(-c2ccn3nc(N)nc3c2)cc1C(=O)NCc1ccc(F)cc1OCC1CCCC1` [Example 18, 5-{2-Amino-[1,2,4]triazolo[1,5-a]pyridin-7-yl}-N-{[2-(cyclopentylmethoxy)-4-fluorophenyl]methyl}-2-methylpyridine-3-carboxamide], the IC50 in test [1] (setting [6]) was 20 to 200 nM; in test [2] (setting [4]) it was more than 200 nM.

Regarding `CC(CCNC(=O)c1cc(-c2ccn3nc(N)nc3c2)nc2ccc(F)cc12)c1ccccc1` (stereo not shown) [Example 67, 2-{2-Amino-[1,2,4]triazolo[1,5-a]pyridin-7-yl}-6-fluoro-N-(3-phenylbutyl)quinoline-4-carboxamide], the IC50 in test [1] (setting [6]) and in test [2] (setting [5]) was 20 to 200 nM each time.

Regarding `Cc1nc(C)c(-c2ccn3nc(N)nc3c2)cc1C(=O)NCc1ccccc1OCC(F)(F)F` [Example 294, 5-(2-amino-[1,2,4]triazolo[1,5-a]pyridin-7-yl)-2,6-dimethyl-N-(2-(2,2,2-trifluoroethoxy)benzyl)nicotinamide], the IC50 in test [1] (setting [6]) was 20 to 200 nM; in test [2] (setting [4]), more than 200 nM.

For the compound `Cc1ncc(-c2ccn3nc(N)nc3c2)cc1C(=O)NCc1ncccc1OCC1CC1` [Example 238, 5-{2-amino-[1,2,4]triazolo[1,5-a]pyridin-7-yl}-N-{[3-(cyclopropylmethoxy)pyridin-2-yl]methyl}-2-methylpyridine-3-carboxamide], the IC50 in test [1] (setting [6]) and in test [2] (setting [5]) was 20 to 200 nM each time.

Regarding `COc1nc(C)c(-c2ccn3nc(N)nc3c2)cc1C(=O)NCc1cccc(OCC2CC2)c1` [Example 200, 5-{2-amino-[1,2,4]triazolo[1,5-a]pyridin-7-yl}-N-{[3-(cyclopropylmethoxy)phenyl]methyl}-2-methoxy-6-methylpyridine-3-carboxamide], the IC50 in test [1] (setting [6]) and in test [2] (setting [5]) was 20 to 200 nM in each case.

For `[2H]C([2H])([2H])[C@H](NC(=O)c1cc(-c2ccn3nc(N)nc3c2)cnc1OC)c1cc(C(F)(F)F)ccc1F` [Example 347, (S)-5-(2-amino-[1,2,4]triazolo[1,5-a]pyridin-7-yl)-N-(1-(2-fluoro-5-(trifluoromethyl)phenyl)ethyl-2,2,2-d3)-2-methoxynicotinamide], the IC50 in test [1] (setting [6]) and in test [2] (setting [5]) was 20 to 200 nM each time.

These data come from patent publication US10913738B2 (BRISTOL-MYERS SQUIBB COMPANY, priority 2017, dated 2021).
